Experimental data taken from ChEMBL document CHEMBL3507680, “University of Dundee, Gates Library screen for HepG2 cell viability”.

experiment: Human HepG2 cell viability assay in 384 well format; format: toxicity, cell-based; set-up: dose 125 nL, time 70.5 hour; cytotoxicity at 70.5 h: concentration not given beside the values; conditions: HepG2 cells, read-out: Inhibition

SMILES | cytotoxicity at 70.5 h [%]
CS(=O)(=O)N1CCn2c(C(=O)N3CCOCC3)cnc2C1 | -0.596
CN(Cc1noc(C2CC2)n1)CC1CCN(CCO)CC1 | 14.4
CN(CC(=O)N1CCC(Cc2cccc(C(N)=O)c2)C1)C1CCCC1 (centres undefined) | 20.8
CN1CCN(Cc2ccccc2CNC(=O)c2ccc(Cl)cc2F)CC1 | 3.69
CNC(=O)[C@H]1C[C@@H]2CN(C(=O)c3ccoc3)C[C@@H]2N1S(C)(=O)=O | -12
CNc1ncc(CN(C)C(=O)c2cccc(CC3CCNCC3)c2)cn1 | 35
O=C(C1=NN(Cc2ccccc2)c2ccccc2S1(=O)=O)N1CCCC1 | -0.281
CS(=O)(=O)NC1CCc2c(ccc(=O)n2CC2CC2)C1 (centres undefined) | -15.1
CN(C)CC(=O)N1CCC2(CCN(Cc3ccccn3)C2=O)C1 (centres undefined) | -22.9
c1ccc2sc(N3CCCN(c4ncnc5c4CCNC5)CC3)nc2c1 | -7.26
O=C(NCCC(=O)N1CCCCCC1)c1c(O)cc(F)cc1F | 9.05
CCOc1cc(C)nc(N2CCN(C(=O)c3cn[nH]c3CC)CC2)n1 | -3.76
CCN1Cc2nc(OC)c(CNC(=O)C3CCS(=O)(=O)CC3)cc2C1=O | -2.6
Cc1ccc(NCCCNC(=O)NCC2CCS(=O)(=O)C2)nc1 (centres undefined) | -17.4
Cc1oncc1C(=O)N1CC2CC1(C(=O)N1CCCC1)C2 | 8.06
Cc1noc(C)c1CN1C(=O)[C@H]2CC[C@@H]1CN(Cc1ncc[nH]1)C2 | -0.471
CCCc1cc(N2CCC(Cc3cccc(C(N)=O)c3)C2)nc(C)n1 (centres undefined) | -5.44
COc1ccc(OC)c(C2CCN(Cc3nc(C)n4ccccc34)C2)c1 (centres undefined) | -12.6
c1ccc(CN2CCCC3(CCN(Cc4cccs4)C3)C2)nc1 (centres undefined) | -7.54
CCC(C)n1cnc(S(=O)(=O)N(C)c2cccnc2N(C)C)c1 (centres undefined) | -7.28
CC(Cc1cccs1)C(=O)NCc1cccc(N2CCCC2=O)c1 (centres undefined) | -8.97
COc1ccc(-c2nc(CN3CCOCS3(=O)=O)c(C)o2)cc1 | -0.0234

SMILES | cytotoxicity at 70.5 h [%]
CNc1cc2c(nn1)CCN(C(=O)c1ccc(-n3nccc3C)cc1)C2 | -5.27
CCOc1ccc(CC(CNC(=O)c2ccco2)C(N)=O)cc1 (centres undefined) | -6.1
CN(Cc1ccncc1)C1COC2(CCN(Cc3ccco3)CC2)C1 (centres undefined) | 9.94
CC(C)Nc1nc(N2CCCC2)nc2c1CN(C)CC2 | -9.83
O=C([C@@H]1CC[C@@H]2[C@@H](CCN2Cc2cccs2)O1)N1CCCCO1 | -7.83
CCc1[nH]nc(NC(=O)c2cc[nH]n2)c1C | 6.09
Cc1nc([C@H]2C[C@H]3CN(C(=O)c4ccoc4C)CC[C@@H]3O2)no1 | -7.31
CCCC(C#N)NC(=O)CCCOc1cccc(C(C)=O)c1 (centres undefined) | 18
O=C(O)c1cc(NS(=O)(=O)c2ccccc2F)ccc1N1CCSCC1 | -8.7
Cc1ccc(=O)n(CC2(O)CCN(Cc3ccoc3)CC2)n1 | -3.06
COc1c(C)cnc(CN(C)C2CCCCC2)c1C | 8.25
CC(C)NC(=O)c1cnc(Sc2nccn2C)c(Cl)c1 | 9.84
COc1cccc2c1ccn2CCC(=O)NCCCC(=O)O | -3.23
CCCc1nnsc1C(=O)N1CCN(CC(O)c2ccco2)CC1 (centres undefined) | -0.0412
CC(C)c1nnc(CN(C)Cc2ccccc2-c2ccccc2)o1 | -6.61
Cc1cnc(C(C)(C)NC(=O)NCc2cccnc2OC(C)C)s1 | 2.79
COc1ccc(NCc2ccccc2N2CCN(C(C)=O)CC2)cn1 | 0.712
O=C(NC1CCCCC1)c1nnc2ccc(N3CCOCC3)cc2n1 | -8.08
COCc1noc(-c2ccc(N3CCCC3c3ccc(F)cc3)nc2)n1 (centres undefined) | -3.49
CCc1nsc(N2CCN(Cc3ccno3)CC2)n1 | -0.144
Cc1nc(C(=O)N2C[C@@H]3CN(S(C)(=O)=O)CCO[C@@H]3C2)cs1 | -1.34
CC(=O)NCCc1ccc(S(=O)(=O)N(C)C(C)CC(C)C)s1 (centres undefined) | -7.26
